Test results as given in patent US12082582B2, “Synergistic preservative compositions, process for preparing the same and method of use thereof” (ISP INVESTMENTS LLC, priority 2018, dated 2024).
Blank lines part the entries; values can stand above or below the molecule they belong to.

Assays:
Type in all cases: cell-based
A. niger = assay: Synergy study of PC and (CHA + IPMP), MIC by broth dilution; details: compound acting alone
Procedure: (§1) The synergistic activity of PC and (CHA+IPMP) compounds were performed against selected microbial strains.
(§2) Tryptic Soy Broth (TSB) media was used for bacterial evaluations and Yeast Malt Broth (YMB) for fungal evaluations. The IPMP solution is prepared by combining 0.25% IPMP with 20% DMSO and water (q.s. 100%). The CHA solution was prepared by combining 0.5% CHA with 20% DMSO and water (q.s. 100%). The compounds are then added to the media (50 μL) and serially diluted. The same amount of PC was added to all wells (e.g. 50 μL of 6.25% solution). 100 μl of a suspension of the testing bacteria or fungi are added to a final concentration of approximately 10^6 CFU/ml in double concentrated media. The inoculated media is then incubated at 32° C. for 2-5 days for bacteria or at 28° C. for 3-7 days for fungi.
(§3) The lowest concentration of each compound or mixture of compounds to inhibit visible growth is taken as the minimum inhibitory concentration (MIC). The MIC is taken as end points of activity. End points for the mixture of compound A (CHA) and compound B (IPMP) with and without PC are then compared with the end points for the pure active ingredient alone.
(§4) Synergism was determined by a commonly used and accepted method described by Kull A. C; Eisman, P. C.; Sylwestrowicz, H. D. and Mayer, R. L. 1961. Applied Microbiology, 9:538-541 using the ratio determine by: Qa/QA+Qb/QB=Synergy Wherein: • QA is the concentration of compound A in PPM, acting alone, which produced an end point. • Qa is the concentration of compound A in PPM, in the mixture, which produced an end point. • QB is the concentration of compound B in PPM, acting alone, which produced an end point. • Qb is the concentration of compound B in PPM, in the mixture, which produced an end point When the sum of Qa/QA+Qb/QB is greater than one, antagonism is indicated. When the sum is equal to one, additive is indicated.
(§5) The results comprise following parameters: 1. Test organism (bacteria or fungi), 2. The end-point activity in % measured by MIC for the compound A alone (QA), for compound A in the mixture (Qa), for compound B alone (QB), for compound B in the mixture (Qb), 3. The ratio of CHA and IPMP (compound A and B) in that particular combination, 4. The sum of Qa+Qb (total ppm that inhibited growth) and 5. and the synergy index (SI) based on the formula SI=Qa/QA+Qb/QB

B. cepacia = assay: as above; details: compound acting alone
Procedure: as §1, §2, §3, §4, §5

C. albicans = assay: as above; details: compound acting alone
Procedure: as §1, §2, §3, §4, §5

E. coli = assay: as above; details: compound acting alone
Procedure: as §1, §2, §3, §4, §5

[1] = Antimicrobial and antifungal characteristics (MIC) of propylene carbonate alone
Excerpt: In one embodiment of the application, the synergistic composition of propylene carbonate with one or more organic compounds or preservative compounds can provide broad spectrum antimicrobial properties. […] The presence of propylene carbonate in the composition can maximize the partitioning of the mixture of organic/preservative compounds into the water phase when added to an end-user composition comprising a mixture of oil and a water phase. Further, the propylene carbonate-based compositions or blends acts as a delivery agent for other preservative/organic actives that have low polarity with high dielectric constant making it a suitable blend to dissolve hydrophobic non-polar actives. The high dielectric constant of the composition enables it to partition the active ingredients towards the oil/water interface which is critical for maximum efficacy and reduces use levels of preservatives or boosters.

MIC (A. niger; Aspergillus niger, read-out: MIC, CHA alone (QA)): 312 µg/mL | MIC (B. cepacia; Burkholderia cepacia, read-out: MIC, CHA alone (QA)): 312 µg/mL | MIC (C. albicans; Candida albicans, read-out: MIC, CHA alone (QA)): 312 µg/mL | MIC (E. coli; Escherichia coli, read-out: MIC, CHA alone (QA)): 625 µg/mL
Compound: CCCCCCCC(=O)NO [CHA, caprylhydroxamic acid]

Compound: Cc1cc(O)ccc1C(C)C [IPMP, isopropyl methylphenol]
MIC, IPMP alone (QB) (A. niger): 156.3 ppm | MIC, IPMP alone (QB) (B. cepacia): 312.5 ppm | MIC, IPMP alone (QB) (C. albicans): 312.5 ppm | MIC, IPMP alone (QB) (E. coli): 625 ppm

Compound: CC1COC(=O)O1 (stereo not drawn) [Propylene carbonate]
Antimicrobial and antifungal characteristics (MIC) [1]: no significant antimicrobial and antifungal characteristics
